Measured values from article PMC8832557 (Cell Metabolism, 2022).
Where two headings read alike, the source gives them in different places.

Assays:
[1] = biological target: T1, ACE2 (angiotensin-I converting enzyme 2) (Homo sapiens, UniProt Q9BYF1); experiment: SPR; assay type: binding
[2] = biological target: T1, ACE2 (angiotensin-I converting enzyme 2); experiment: SPR; assay type: binding; remark: listed apart in the source

T1 sequence (Q9BYF1 18-805): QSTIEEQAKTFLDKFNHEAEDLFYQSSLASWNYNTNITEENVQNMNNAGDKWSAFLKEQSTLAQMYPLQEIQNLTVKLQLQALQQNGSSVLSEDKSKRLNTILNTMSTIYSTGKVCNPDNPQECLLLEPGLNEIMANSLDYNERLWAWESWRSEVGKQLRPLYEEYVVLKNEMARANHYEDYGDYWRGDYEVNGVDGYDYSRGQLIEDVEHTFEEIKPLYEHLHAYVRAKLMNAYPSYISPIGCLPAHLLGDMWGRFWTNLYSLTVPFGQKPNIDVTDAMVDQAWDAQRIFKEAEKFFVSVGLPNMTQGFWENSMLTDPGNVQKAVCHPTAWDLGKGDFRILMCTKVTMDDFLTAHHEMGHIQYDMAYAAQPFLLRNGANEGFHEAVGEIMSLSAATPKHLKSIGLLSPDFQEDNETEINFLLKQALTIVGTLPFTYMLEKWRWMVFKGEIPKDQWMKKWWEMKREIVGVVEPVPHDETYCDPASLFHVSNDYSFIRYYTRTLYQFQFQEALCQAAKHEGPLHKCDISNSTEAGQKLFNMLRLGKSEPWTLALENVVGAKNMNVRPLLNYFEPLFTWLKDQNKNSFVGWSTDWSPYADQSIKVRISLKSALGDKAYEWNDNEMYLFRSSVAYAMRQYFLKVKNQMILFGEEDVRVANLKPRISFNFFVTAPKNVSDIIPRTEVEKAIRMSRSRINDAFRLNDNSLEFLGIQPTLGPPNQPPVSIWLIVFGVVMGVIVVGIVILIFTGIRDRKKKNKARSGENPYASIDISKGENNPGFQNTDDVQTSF

Structure (SMILES) | Kd [1] [µM] | Kd [2] [µM]
C[C@]1(OC(=O)/C=C/c2ccccc2)C[C@@H](O)[C@]2(O)C=CO[C@@H](O[C@@H]3O[C@H](CO)[C@@H](O)[C@H](O)[C@H]3O)[C@@H]21 [Har, harpagoside] | 86.1 | –
CC(=O)/N=c1/sc(S(N)(=O)=O)nn1C [Met, methazolamide] | 70 | –
N=C(N)c1ccc(/N=N/Nc2ccc(C(=N)N)cc2)cc1 [DIZE, diminazene aceturate] | – | 4.9
Cc1ccc(NC(=O)c2ccc(CN3CCN(C)CC3)cc2)cc1Nc1nccc(-c2cccnc2)n1 [Ima, imatinib] | 12.7 | –
